Series [1] is described as follows: Inhibition of recombinant BCR/FGFR4 (unknown origin) transduced in mouse BaF3 cells incubated for 48 hrs by Cell Titer Glo assay. The series is classed as cell-based. Particulars: BaF3, 48 h. (In general: ATP-based viability assays read luminescence as a measure of living cells.)
Series [2] in a line: Inhibition of recombinant BCR/FGFR1 (unknown origin) transduced in mouse BaF3 cells incubated for 48 hrs by Cell Titer Glo assay. Particulars: BaF3, 48 h. The series is classed as cell-based.
Series [3] in a line: Inhibition of recombinant BCR/FGFR2 (unknown origin) transduced in mouse BaF3 cells incubated for 48 hrs by Cell Titer Glo assay. The class given is cell-based. Particulars: BaF3, 48 h.
A short description of series [4]: Inhibition of recombinant FGFR3/BAIAP2L1 (unknown origin) transduced in mouse BaF3 cells incubated for 48 hrs by Cell Titer Glo assay. The series is classed as cell-based. The conditions noted are these: BaF3, 48 h.
The nature of series [5]: Stability in human hepatocytes assessed as half life at 1 uM incubated upto 180 mins by LC-MS/MS analysis. The series is classed as ADME, cell-based, Hepatocyte.
The nature of series [6]: Stability in human liver microsomes assessed as half life at 1 uM incubated upto 180 mins by LC-MS/MS analysis. The class given is ADME, Microsome. On the technique in general: Microsomes from liver hold many membrane-bound enzymes, among them those of drug oxidation.

SMILES strings stand for the structures.

As usually defined, the IC50 is the concentration at which inhibition is half-maximal. As to `C[C@@H](Oc1cc2c(-c3ccc(N4CC5(C4)CN(S(C)(=O)=O)C5)nc3)n[nH]c2cc1Cl)c1c(Cl)cncc1Cl`, the IC50 was determined as 37 nM in series [1], 60 nM in series [2], 35 nM in series [3] and 6.2 nM in series [4].
Usually half-life stands for how long it takes for the measured level to halve. Take `C[C@@H](Oc1ccc2[nH]nc(-c3ccc(N4CCC5(CC4)CCS(=O)(=O)C5)nc3)c2c1)c1c(Cl)cncc1Cl`: the IC50 turned out to be 577 nM in series [1], 423 nM in series [2], 193 nM in series [3] and 14 nM in series [4]. Further, in series [5], the half-life at 1 µM worked out at 88 min.
For `C[C@@H](Oc1ccc2[nH]nc(-c3ccc(N4CCN(S(C)(=O)=O)CC4)nc3)c2c1)c1c(Cl)cncc1Cl`, the IC50 in series [1] came to 156 nM; in series [2], 150 nM; in series [3] it was 104 nM; in series [4], 5.8 nM. Moreover, the half-life at 1 µM in series [6] stood at 9.6 min.
As to `C[C@@H](Oc1ccc2[nH]nc(-c3ccc(N4CCC5(CCOC5)CC4)nc3)c2c1)c1c(Cl)cncc1Cl`, the IC50 in series [1] was found to be 835 nM; in series [2], 711 nM; in series [3], 360 nM; in series [4], 48 nM.
Take `COC(=O)N1CCN(c2ccc(-c3n[nH]c4ccc(O[C@H](C)c5c(Cl)cncc5Cl)cc34)cn2)CC1`: the IC50 worked out at 591 nM in series [1], 556 nM in series [2], 387 nM in series [3] and 38 nM in series [4]. Further, the half-life at 1 µM in series [6] worked out at 8.5 min.
For the molecule `C[C@@H](Oc1ccc2[nH]nc(-c3ccc(N4CCC5(CC4)CN(C)CC(=O)N5)nc3)c2c1)c1c(Cl)cncc1Cl`, the IC50 in series [1] amounted to 298 nM; in series [2], 208 nM; in series [3], 154 nM; in series [4] it was 13 nM. For the same molecule, in series [5], the half-life at 1 µM worked out at 36 min.
As to `C[C@H](Oc1ccc2[nH]nc(-c3ccc(N4CC5(C4)CN(S(C)(=O)=O)C5)nc3)c2c1)c1c(Cl)cncc1Cl`, the 50% inhibitory concentration (IC50) in series [4] worked out at 133 nM.
Consider `C[C@@H](Oc1ccc2[nH]nc(-c3ccc(N4CC5(CCCS(=O)(=O)C5)C4)nc3)c2c1)c1c(Cl)cncc1Cl`, for which the IC50 amounted to 17 nM in series [1], 61 nM in series [2], 33 nM in series [3] and 2.5 nM in series [4]. The half-life at 1 µM in series [5] amounted to 85 min.
Take `C[C@@H](Oc1ccc2[nH]nc(-c3ccc(N4CCN(C)CC4)nc3)c2c1)c1c(Cl)cncc1Cl`: the IC50 in series [1] is 27 nM; in series [2], 46 nM; in series [3] it was 28 nM; in series [4] it was 3.6 nM. The half-life at 1 µM in series [6] was found to be 5 min.
For the molecule `CCOC(=O)N1CC2(C1)CN(c1ccc(-c3n[nH]c4ccc(O[C@H](C)c5c(Cl)cncc5Cl)cc34)cn1)C2`, the IC50 in series [1] turned out to be 418 nM; in series [2], 434 nM; in series [3] it was 248 nM; in series [4], 22 nM. The half-life at 1 µM in series [5] amounted to 27 min.
Take `C[C@@H](Oc1cc2c(-c3ccc(N4CC5(C4)CN(S(C)(=O)=O)C5)nc3)n[nH]c2cc1F)c1c(Cl)cncc1Cl`: the IC50 in series [1] is 40 nM; in series [2], 84 nM; in series [3], 56 nM; in series [4] it was 6.3 nM. For the same molecule, the half-life at 1 µM in series [5] was over 100 min.
Consider `C[C@@H](Oc1ccc2[nH]nc(-c3ccc(N4CCN(C(=O)N5CCN(C)CC5)CC4)nc3)c2c1)c1c(Cl)cncc1Cl`, for which the IC50 in series [1] was 148 nM; in series [2], 113 nM; in series [3], 114 nM; in series [4], 6.5 nM. Besides, in series [6], the half-life at 1 µM is 3.5 min.
For `C[C@H](Oc1ccc2[nH]nc(-c3ccc(N4CC5(C4)CN(S(C)(=O)=O)C5)nc3)c2c1)c1c(Cl)cnnc1Cl`, the IC50 in series [2] turned out to be 2000 nM; in series [4] it was 179 nM.
For the molecule `Cc1ncc(Cl)c([C@@H](C)Oc2ccc3[nH]nc(-c4ccc(N5CC6(C5)CN(S(C)(=O)=O)C6)nc4)c3c2)c1Cl`, the half-inhibitory concentration (IC50) in series [2] turned out to be 176 nM; in series [3], 47 nM; in series [4] it was 10 nM. In addition, the half-life at 1 µM in series [5] was found to be 64 min.
On to `C[C@@H](Oc1ccc2[nH]nc(-c3ccc(N4CCOCC4)nc3)c2c1)c1c(Cl)cncc1Cl`, for which the IC50 was 1230 nM in series [1], 514 nM in series [2], 313 nM in series [3] and 36 nM in series [4]. Also, in series [6], the half-life at 1 µM is 5.5 min.
As to `C[C@@H](Oc1ccc2[nH]nc(-c3ccc(Cl)nc3)c2c1)c1c(Cl)cncc1Cl`, the IC50 in series [1] was found to be 2200 nM; in series [2], 1040 nM; in series [3] it was 451 nM; in series [4], 110 nM.
For the molecule `C[C@@H](Oc1ccc2[nH]nc(-c3ccc(N4CC5(C4)CN(S(C)(=O)=O)C5)nc3)c2c1)c1c(Cl)cnc(F)c1Cl`, the IC50 in series [2] came out at 258 nM; in series [4] it was 16 nM.
As for `CC(C)N1CC2(CN(c3ccc(-c4n[nH]c5ccc(O[C@H](C)c6c(Cl)cncc6Cl)cc45)cn3)C2)C1`, the half-inhibitory concentration (IC50) came out at 22 nM in series [1], 59 nM in series [2], 35 nM in series [3] and 4.1 nM in series [4]. Besides, in series [5], the half-life at 1 µM was found to be 51 min.
As for `CCC(=O)N1CCN(c2ccc(-c3n[nH]c4ccc(O[C@H](C)c5c(Cl)cncc5Cl)cc34)cn2)CC1`, the figures for the 50% inhibitory concentration (IC50) in series [2] and in series [4] were 112 nM and 6 nM, respectively. Also, the half-life at 1 µM in series [6] was determined as 4.7 min.
As to `C[C@@H](Oc1ccc2[nH]nc(-c3cnc(N4CC5(C4)CN(S(C)(=O)=O)C5)cn3)c2c1)c1c(Cl)cncc1Cl`, the IC50 in series [1] is 21 nM; in series [2], 189 nM; in series [3], 97 nM; in series [4], 16 nM. In addition, the half-life at 1 µM in series [5] is over 100 min.
On to `C[C@@H](Oc1ccc2[nH]nc(-c3ccc(N4CC5(C4)CS(=O)(=O)C5)nc3)c2c1)c1c(Cl)cncc1Cl`, for which the IC50 in series [1] was 300 nM; in series [2] it was 228 nM; in series [3], 191 nM; in series [4], 26 nM.
With `C[C@@H](Oc1ccc2[nH]nc(-c3ccc(N4CC5(C4)CN(S(C)(=O)=O)C5)nc3)c2c1)c1c(Cl)cccc1Cl`, the figures for the IC50 in series [2] and in series [4] were 405 nM and 30 nM, respectively.
For the molecule `COc1cc2[nH]nc(-c3ccc(N4CC5(C4)CN(S(C)(=O)=O)C5)nc3)c2cc1O[C@H](C)c1c(Cl)cncc1Cl`, the IC50 worked out at 4.5 nM in series [1], 14 nM in series [2], 6.9 nM in series [3] and 0.8 nM in series [4].
Take `C[C@@H](Oc1ccc2[nH]nc(-c3ccc(N4CC5(CCN5S(C)(=O)=O)C4)nc3)c2c1)c1c(Cl)cncc1Cl`: the half-inhibitory concentration (IC50) in series [1] was 229 nM; in series [2] it was 290 nM; in series [3] it was 131 nM; in series [4] it was 18 nM. Further, in series [5], the half-life at 1 µM amounted to 49 min.
`C[C@@H](Oc1ccc2[nH]nc(-c3ccc(N4CCC5(CCCO5)CC4)nc3)c2c1)c1c(Cl)cncc1Cl`: the IC50 in series [1] turned out to be 2030 nM; in series [2], 872 nM; in series [3], 503 nM; in series [4], 97 nM.
`C[C@@H](Oc1ccc2[nH]nc(-c3ccc(N4CCN(S(C)(=O)=O)C5(CC5)C4)nc3)c2c1)c1c(Cl)cncc1Cl`: the IC50 in series [2] is 172 nM; in series [4] it was 12 nM. The half-life at 1 µM in series [6] was 4.8 min.
Consider `C[C@@H](Oc1ccc2[nH]nc(-c3ccc(N4CCN(C(=O)N(C)C)CC4)nc3)c2c1)c1c(Cl)cncc1Cl`, for which the IC50 in series [1] worked out at 307 nM; in series [2], 290 nM; in series [3], 249 nM; in series [4], 13 nM. Also, in series [6], the half-life at 1 µM came to 1.1 min.
On to `Cc1cncc(C)c1[C@@H](C)Oc1ccc2[nH]nc(-c3ccc(N4CC5(C4)CN(S(C)(=O)=O)C5)nc3)c2c1`, for which the IC50 in series [1] amounted to 52 nM; in series [2], 135 nM; in series [3] it was 86 nM; in series [4] it was 8.1 nM. Further, the half-life at 1 µM in series [5] is 32 min.
Consider `C[C@@H](Oc1ccc2[nH]nc(-c3ccc(N4CC5(CCCN(S(C)(=O)=O)C5)C4)nc3)c2c1)c1c(Cl)cncc1Cl`, for which the IC50 in series [1] worked out at 39 nM; in series [2], 94 nM; in series [3], 62 nM; in series [4], 6 nM. Besides, the half-life at 1 µM in series [5] worked out at 40 min.
Regarding `CCS(=O)(=O)N1CC2(CN(c3ccc(-c4n[nH]c5ccc(O[C@H](C)c6c(Cl)cncc6Cl)cc45)cn3)C2)C1`, the IC50 in series [1] came to 529 nM; in series [2], 390 nM; in series [3] it was 290 nM; in series [4], 40 nM.
Consider `C[C@@H](Oc1ccc2[nH]nc(-c3ccc(N4CCN(S(C)(=O)=O)CC4=O)nc3)c2c1)c1c(Cl)cncc1Cl`, for which the IC50 in series [1] worked out at 412 nM; in series [2] it was 653 nM; in series [3], 407 nM; in series [4], 48 nM. The half-life at 1 µM in series [6] is 3.3 min.
For the molecule `C[C@@H](Oc1ccc2[nH]nc(-c3ccc(N4CC5(CN(C(=O)N(C)C)C5)C4)nc3)c2c1)c1c(Cl)cncc1Cl`, the IC50 in series [1] came out at 469 nM; in series [2] it was 234 nM; in series [3] it was 202 nM; in series [4] it was 17 nM. The half-life at 1 µM in series [5] is 14 min.
Turning to `C[C@@H](Oc1ccc2[nH]nc(/C=C/c3cnn(CCO)c3)c2c1)c1c(Cl)cncc1Cl` [LY-2874455], the IC50 is 2 nM in series [1], 0.5 nM in series [2], 0.2 nM in series [3] and 0.2 nM in series [4].
On to `C[C@@H](Oc1ccc2[nH]nc(-c3ccc(C4CCN(S(C)(=O)=O)CC4)nc3)c2c1)c1c(Cl)cncc1Cl`, for which the results for the IC50 in series [2] and in series [4] were 99 nM and 5.3 nM, respectively. Moreover, the half-life at 1 µM in series [6] is 15 min.
The like results for `C[C@@H](Oc1ccc2[nH]nc(-c3ccc(N4CC5CC(C4)N5S(C)(=O)=O)nc3)c2c1)c1c(Cl)cncc1Cl` were, in that order, 338 nM, 23 nM and 15 min.

For the origin of these results see ChEMBL document CHEMBL5579895, “Discovery of TYRA-300: First Oral Selective FGFR3 Inhibitor for the Treatment of Urothelial Cancers and Achondroplasia” (J Med Chem, 2024).
